What all share (type): cell-based, human
Assay [1] has as its system lenalidomide-sensitive and resistant myeloma cell lines. The assay can be described thus: Combination effects in lenalidomide-sensitive and resistant myeloma cell lines. The settings on record: multiple myeloma cell lines in vitro.
Description: Cell lines and cell culture: Cell lines were purchased from American Type Culture Collection (ATCC) and maintained in culture medium recommended by ATCC. […] Multiple myeloma (MM) cell lines that were used or can be used include the following: NCI-H929, LP-1, MM1.s, U266B1, DF-15 and RPMI-8226 human MM-derived cell lines. The […] ® resistant cell lines H929/R1, H929/R2, H929/R3 and H929/R4 were established by continuous exposure of H929 parental cells (H929) to increasing concentrations of […] ® for a minimum of 5 months. The control cell line H929/D was established by continuous exposure of H929 parental cells to 0.1% DMSO.
The number of cells affected by compound treatment was normalized to the DMSO control (100% viability) and the data was imported into the CalcuSyn software (V2.1, Biosoft). Synergism was quantitated by the combination index (CI) using CalcuSyn according to Chou-Talalay's CI method with mathematical modeling and simulations. […] ED50 is the median effect dose at which a 50% growth inhibition is achieved.
Cell density and viability were monitored using the Vi-cell XR cell viability analyzer (Beckman Coulter). […] Cell proliferation was determined after 5 days of treatment by flow cytometry on unfixed cells and using 7-aminoactinomycin D (7AAD) (Molecular Probes, Carlsbad, Calif., USA) exclusion (0.25% final dye concentration) for viability assessment. […]
In assay [2] the test system is Lenalidomide-resistant H929 cell lines (H929 R10-1 through 4). The assay can be described thus: Anti-proliferative effect on lenalidomide-resistant H929 cell lines. The settings on record: lenalidomide-resistant H929 lines with ~50% reduction in cereblon protein. On the procedure: Cell density and viability were monitored using the Vi-cell XR cell viability analyzer (Beckman Coulter). Once cell viability was >90% and cell density was ˜5×10^5 cells/mL (log phase), the cells were incubated at the indicated concentrations of a TOR kinase inhibitor and/or second active agent at a final concentration of 0.1% vehicle (DMSO). For combination studies, the TOR kinase inhibitor and the second active agent were simultaneously added to cells in triplicate. Cell proliferation was determined after 5 days of treatment by flow cytometry on unfixed cells and using 7-aminoactinomycin D (7AAD) (Molecular Probes, Carlsbad, Calif., USA) exclusion (0.25% final dye concentration) for viability assessment. Flow cytometry was utilized to gate on the target cells and to measure 7AAD negative and 7AAD positive cells. Stained cells were analyzed on a FACS Array flow cytometer with standard BD FACS Array System software (BDBiosciences, Palo Alto, Calif.). The percentage of surviving cells (7AAD negative) was calculated relative to cells treated with vehicle (DMSO) control. For single compound treatments (TOR kinase inhibitor and second active agents separately), the average values from triplicates were plotted to obtain IC50 values using software XLfit from IDBS. […]

A further assay deals with SK-Hep-1 cells. In words: Anchorage independent growth (colony formation) assay. The settings on record: single agent, concentrations of 0.1 to 100 μM. On the procedure: (§1) Cell Lines/Cells. Human cell lines HepG2 and SK-Hep-1 cells were obtained from American Type Culture Collection (ATCC; Manassas, Va.). Cells were cultured in DMEM (Dulbecco's Modified Eagle's Medium) (Mediatech; Mannasas, Va.) with 10% Premium FBS (Lonza, Walkersville, Md.).
(§2) (1) Single Agent Colony Formation Assay. Nobel Agar (1.2 grams; BD; Franklin Lakes, N.J.) was placed in a 100-mL sterile bottle. Sterile water (100 mL) was added and microwaved until the agar boiled. Equal volumes of agar and 2×RPMI medium (ECE Scientific; Doylestown, Pa.) were mixed and 300 μL were transferred to each well in a 24-well flat bottom plate (BD; Franklin Lakes, N.J.). Plates were kept at 4° C. until the agar solidified. Cultures of HepG2 and SK-Hep-1 cells were harvested and resuspended in culture medium at 3.6×10^3 cells/mL. Equal volumes of agar, 2×RPMI, and cell suspension (1:1:1) were mixed in a sterile tube and 500 μL/well were immediately transferred into the 24-well plates. Plates were kept at 4° C. until the agar solidified. Culture medium (500 μL) containing compound or DMSO was added to each well (final DMSO concentration for each treatment was 0.2%). Compound 1 was tested at final concentrations of 0.1, 0.3, 1, 3, 10 and 30 μM. […]
(§3) Significance versus the DMSO control was calculated using One Way ANOVA and Dunnett's Post test or unpaired t tests using GraphPad Prism v5.01.

The subject of the next assay is HepG2 cells. The description is as above. The settings on record: single agent, concentrations of 0.1 to 100 μM. On the procedure: as §1, §2, §3

On to `CCN1C(=O)CNc2ncc(-c3ccc(-c4nc[nH]n4)nc3C)nc21` [Compound 2, 1-ethyl-7-(2-methyl-6-(1H-1,2,4-triazol-3-yl)pyridin-3-yl)-3,4-dihydropyrazino[2,3-b]pyrazin-2(1H)-one], for which the “Dependence of activity on cereblon protein levels” value in assay [1] was “independent of cereblon protein levels”. For the same molecule, the “Anti proliferative effects, single agent” value in assay [2] is “potent anti proliferative effects”.
Turning to `CO[C@H]1CC[C@H](N2C(=O)CNc3ncc(-c4ccc(C(C)(C)O)nc4)nc32)CC1` [Compound 1, 7-(6-(2-hydroxypropan-2-yl)pyridin-3-yl)-1-((1r,4r)-4-methoxycyclohexyl)-3,4-dihydropyrazino-[2,3-b]pyrazin-2(1H)-one], the Anti-colony forming activity entry was “dose-dependent and significant anti-colony forming activity” in the assay on SK-Hep-1 cells; “dose-dependent and significant anti-colony forming activity” with HepG2 cells. For the same molecule, the “Dependence of activity on cereblon protein levels” value in assay [1] is “independent of cereblon protein levels”. In addition, in assay [2], the “Anti proliferative effects, single agent” value was “potent anti proliferative effects”.

Source of the values: US20140314752A1, “METHODS FOR TREATING CANCER USING TOR KINASE INHIBITOR COMBINATION THERAPY” (Signal Pharmaceuticals, LLC, priority 2013, published 2014).
